# ChEMBL document CHEMBL1140595, “Hybrid molecules between distamycin A and active moieties of antitumor agents” (Bioorg Med Chem, 2007)
# Legend:
# [1] = Inhibition of telomerase activity in human melanoma cell extracts
# K562 = assay: Antiproliferative activity against human K562 cells; assay type: functional, cell-based
# CCRF-CEM [2] = assay: Antiproliferative activity against human CEM cells; assay type: functional, cell-based
# FM3A = assay: Antiproliferative activity against mouse FM3A cells; assay type: functional, cell-based
# MOLT-4 = assay: Antiproliferative activity against human Molt/4 cells; assay type: functional, cell-based
# L1210 = assay: Antiproliferative activity against mouse L1210 cells; assay type: functional, cell-based
# Daudi = assay: Antiproliferative activity against human Daudi cells; assay type: functional, cell-based
# Jurkat = assay: Antiproliferative activity against human Jurkat cells; assay type: functional, cell-based
# CCRF-CEM [3] = assay: Antiproliferative activity against human CCRF-CEM cells; assay type: functional, cell-based
# Raji = assay: Antiproliferative activity against human Raji cells; assay type: functional, cell-based
# CCRF-SB = assay: Antiproliferative activity against human CCRF-SB cells; assay type: functional, cell-based
# WIL2-NS = assay: Antiproliferative activity against human Wil2-NS cells; assay type: functional, cell-based
IC50 (K562),IC50 (CCRF-CEM [2]),IC50 (MOLT-4),IC50 (L1210),SMILES,IC50 (FM3A),other results
,,,,Cn1cc(NC(=O)c2cc(NC(=O)c3cc(NC(=O)c4cc(NC(=O)c5cc(NC=O)cn5C)cn4C)cn3C)cn2C)cc1C(=O)NCCC(=N)N,,IC50 [1]: 24 µM
> 200 µM,,,,Cn1cc(NC(=O)c2cc(NC(=O)c3cc(NC(=O)Cn4cc(F)c(=O)[nH]c4=O)cn3C)cn2C)cc1C(=O)NCCC(=N)N,,
,26.3 µM,22.3 µM,24.3 µM,C=C1CC(C)(COc2cc(C(=O)Nc3cc(C(=O)NCCC(=N)N)n(C)c3)n(C)n2)OC1=O (centres undefined),32.4 µM,
> 100 µM,,,,COc1cc2c(cc1OCCC(=O)Nc1cc(C(=O)NCCC(=N)N)n(C)c1)N=C[C@@H]1CCCN1C2=O,,
,9.7 µM,5.2 µM,4.2 µM,C=C1CC(COc2cc(C(=O)Nc3cc(C(=O)Nc4cc(C(=O)Nc5cc(C(=O)NCCC(=N)N)n(C)c5)n(C)c4)n(C)c3)n(C)n2)(c2ccccc2)OC1=O (centres undefined),17.5 µM,
,6.72 µM,8.55 µM,2.71 µM,CC(C)(C)OC(=O)N1CC2CC23C1=CC(=O)c1c3cnn1Cc1ccccc1 (centres undefined),18.3 µM,IC50 (Daudi): 7.52 µM
,74.3 µM,106 µM,109 µM,C=C1CC(C)(CCCCCOc2cc(C(=O)Nc3cc(C(=O)Nc4cc(C(=O)Nc5cc(C(=O)NCCC(=N)N)n(C)c5)n(C)c4)n(C)c3)n(C)n2)OC1=O (centres undefined),92 µM,
50 µM,,,,Cn1cc(NC(=O)c2cc(NC(=O)c3cc(NC(=O)CCCCCCn4cc(F)c(=O)[nH]c4=O)cn3C)cn2C)cc1C(=O)NCCC(=N)N,,
82 µM,,,,Cn1cc(NC(=O)c2cc(NC(=O)c3cc(NC(=O)CCCn4cc(F)c(=O)[nH]c4=O)cn3C)cn2C)cc1C(=O)NCCC(=N)N,,
23 µM,,,,Cn1cc(NC(=O)c2cc(NC(=O)c3cc(NC(=O)CCn4cc(F)c(=O)[nH]c4=O)cn3C)cn2C)cc1C(=O)NCCC(=N)N,,
,9.6 µM,6.8 µM,8.02 µM,C=C1CC(C)(COc2cc(C(=O)Nc3cc(C(=O)Nc4cc(C(=O)NCCC(=N)N)n(C)c4)n(C)c3)n(C)n2)OC1=O (centres undefined),27.6 µM,
50 µM,,,,Cn1cc(NC(=O)c2cc(NC(=O)c3cc(NC(=O)CCCCCn4cc(F)c(=O)[nH]c4=O)cn3C)cn2C)cc1C(=O)NCCC(=N)N,,
,95 µM,65.3 µM,33.2 µM,C=C1CC(COc2cc(C(=O)Nc3cc(C(=O)Nc4cc(C(=O)Nc5cc(C(=O)NCCC(=N)N)n(C)c5)n(C)c4)n(C)c3)n(C)n2)(c2ccc(-c3ccccc3)cc2)OC1=O (centres undefined),21.8 µM,
,5.7 µM,4.6 µM,4.1 µM,C=C1CC(COc2cc(C(=O)Nc3cc(C(=O)Nc4cc(C(=O)NCCC(=N)N)n(C)c4)n(C)c3)n(C)n2)(c2ccccc2)OC1=O (centres undefined),18.5 µM,
,86.3 µM,79.1 µM,25.2 µM,C=C1CC(COc2cc(C(=O)Nc3cc(C(=O)Nc4cc(C(=O)Nc5cc(C(=O)NCCC(=N)N)n(C)c5)n(C)c4)n(C)c3)n(C)n2)(c2ccc(Cl)cc2)OC1=O (centres undefined),64.7 µM,
,,,> 200 µM,COC(=O)C1(O)C(OC)=CC(=O)N1CCCC(=O)Nc1cc(C(=O)Nc2cc(C(=O)Nc3cc(C(=O)NCCCN(C)C)n(C)c3)n(C)c2)n(C)c1 (centres undefined),,
,18.9 µM,15.8 µM,12.5 µM,C=C1CC(COc2cc(C(=O)Nc3cc(C(=O)NCCC(=N)N)n(C)c3)n(C)n2)(c2ccccc2)OC1=O (centres undefined),36.3 µM,
,15.9 µM,12.3 µM,9.6 µM,C=C1CC(C)(COc2cc(C(=O)Nc3cc(C(=O)Nc4cc(C(=O)Nc5cc(C(=O)NCCNC(=N)N)n(C)c5)n(C)c4)n(C)c3)n(C)n2)OC1=O (centres undefined),42.5 µM,
,255 µM,254 µM,195 µM,C=C1CC(C)(CCCOc2cc(C(=O)Nc3cc(C(=O)Nc4cc(C(=O)Nc5cc(C(=O)NCCC(=N)N)n(C)c5)n(C)c4)n(C)c3)n(C)n2)OC1=O (centres undefined),243 µM,
,35.6 µM,71.1 µM,26.7 µM,C=C1CC(C)(CCCCCCCOc2cc(C(=O)Nc3cc(C(=O)Nc4cc(C(=O)Nc5cc(C(=O)NCCC(=N)N)n(C)c5)n(C)c4)n(C)c3)n(C)n2)OC1=O (centres undefined),63.3 µM,
153 µM,,,,Cn1cc(NC(=O)c2cc(NC(=O)c3cc(NC(=O)CCCCn4cc(F)c(=O)[nH]c4=O)cn3C)cn2C)cc1C(=O)NCCC(=N)N,,
,15.9 µM,14.7 µM,14.7 µM,C=C1CC(C)(COc2cc(C(=O)Nc3cc(C(=O)Nc4cc(C(=O)Nc5cc(C(=O)NCCC(=N)N)n(C)c5)n(C)c4)n(C)c3)n(C)n2)OC1=O (centres undefined),49 µM,
,10 µM,10.1 µM,5.1 µM,C=C1CC(COc2cc(C(=O)Nc3cc(C(=O)Nc4cc(C(=O)Nc5cc(C(=O)NCCNC(=N)N)n(C)c5)n(C)c4)n(C)c3)n(C)n2)(c2ccccc2)OC1=O (centres undefined),20.5 µM,
21.7 µM,,38.8 µM,,Cn1cc(NC(=O)c2cc(NC(=O)c3cc(NC(=O)C(N)CN)cn3C)cn2C)cc1C(=O)NCCC(=N)N (centres undefined),,IC50 (CCRF-CEM [3]): 40.6 µM; IC50 (Raji): 42.8 µM; IC50 (CCRF-SB): 97 µM; IC50 (WIL2-NS): 108 µM
,1.26 µM,1.74 µM,0.52 µM,Cc1n[nH]c2c1C13CC1CN(C(=O)OC(C)(C)C)C3=CC2=O (centres undefined),1.4 µM,IC50 (Daudi): 0.68 µM
24.2 µM,,35.8 µM,,Cn1cc(NC(=O)c2cc(NC(=O)c3cc(NC(=O)[C@@H](N)CS)cn3C)cn2C)cc1C(=O)NCCC(=N)N,,IC50 (CCRF-CEM [3]): 36.7 µM; IC50 (Raji): 45 µM; IC50 (CCRF-SB): 92 µM; IC50 (WIL2-NS): 98 µM
,113 µM,64.6 µM,133 µM,Cn1cc(NC(=O)c2cc(NC(=O)c3cc(NC=O)cn3C)cn2C)cc1C(=O)NCCC(=N)N [STALLIMYCIN],150 µM,

SMILES,IC50 (K562),IC50 (CCRF-CEM [2]),IC50 (MOLT-4),IC50 (L1210),IC50 (FM3A),other results
COc1cc2c(cc1O)N=C[C@@H]1CCCN1C2=O,1 µM,,,,,IC50 (Jurkat): 2.2 µM
